Reference: paper PMC8243516, “Inhibition of lysosomal phospholipase A2 predicts drug-induced phospholipidosis” (Journal of Lipid Research, 2021)
Where two headings read alike, the source gives them in different places.

Key:
[1] = cited from earlier work
LPLA2 = target: T1, LPLA2 (Mus musculus, UniProt Q8VEB4); test: LPLA2 thermal stability measurement (SYPRO Orange Tm); format: binding
T1 construct: purchased Proteos Inc. (Kalamazoo, MI)
T1 sequence (Q8VEB4 34-412): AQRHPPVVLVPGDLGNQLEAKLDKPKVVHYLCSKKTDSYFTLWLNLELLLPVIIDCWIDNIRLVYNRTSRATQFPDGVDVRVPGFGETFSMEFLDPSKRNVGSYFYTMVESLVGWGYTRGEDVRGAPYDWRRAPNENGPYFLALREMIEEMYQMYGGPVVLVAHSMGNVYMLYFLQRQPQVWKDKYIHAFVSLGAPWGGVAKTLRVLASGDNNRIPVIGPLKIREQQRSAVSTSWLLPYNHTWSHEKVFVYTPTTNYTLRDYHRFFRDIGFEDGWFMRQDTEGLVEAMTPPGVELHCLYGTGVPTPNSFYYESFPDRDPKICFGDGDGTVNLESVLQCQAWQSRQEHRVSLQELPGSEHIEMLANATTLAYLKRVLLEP

[2] = target: T2, recombinant mouse LPLA2 (PLA2G15) (Mus musculus, UniProt Q8VEB4); test: Transacylase activity of LPLA2 (1-O-acyl-N-acetylsphingosine synthase, cell-free liposome assay); format: biochemical
T2 construct: purchased Proteos Inc. (Kalamazoo, MI)
T2 sequence (Q8VEB4 34-412): T1 sequence (Q8VEB4 34-412)

[3] = ref Pubchem and chEMBL databases
[4] = 1-O-acyl N-acetylsphingosine synthase activity, pH 4.5, DOPC/sulfatide liposomes, read-out: LPLA2 IC50
[5] = ref Pubchem and chEMBL database
[6] = LPLA2 dependent 1-O-acyl N-acetylsphingosine synthase activity, read-out: LPLA2 IC50

CSc1ccc2c(c1)N(CCC1CCCCN1C)c1ccccc1S2 (centres unmarked) [Thioridazine, 10-[2-(1-methylpiperidin-2-yl)ethyl]-2-(methylsulfanyl) -10H-phenothiazine]
pKa (basic) [1, 3]: 8.93

CN1CCc2c(c3ccccc3n2Cc2ccccc2)C1 [mebhydroline]
(ΔTm)c-(ΔTm)d, difference in melting temperature of LPLA2 alone or in the presence of drug (LPLA2; N=3 ± SD): 0.84 ± 0.1 °C

Cc1ccc(C(=O)Nc2ccc(S(=O)(=O)O)c3cc(S(=O)(=O)O)cc(S(=O)(=O)O)c23)cc1NC(=O)c1cccc(NC(=O)Nc2cccc(C(=O)Nc3cc(C(=O)Nc4ccc(S(=O)(=O)O)c5cc(S(=O)(=O)O)cc(S(=O)(=O)O)c45)ccc3C)c2)c1 [Suramin, 8-{4-methyl-3-[3-({[3-({2-methyl-5-[(4,6,8-trisulfonaphthalen-1yl)carbamoyl]phenyl}carbamoyl)phenyl]carbamoyl}amino)benzamido]benzamido}naphthalene-1,3,5-trisulfonic acid]
(ΔTm)c-(ΔTm)d, difference in melting temperature of LPLA2 alone or in the presence of drug (LPLA2; N=3 ± SD): 0 °C
IC50 [2, 4]: 35.5 µM

Nc1c(Br)cc(Br)cc1CN[C@H]1CC[C@H](O)CC1 [Ambroxol, 2-amino-3,5-dibromo-N-(trans-4-hydroxycyclohexyl) benzylamine]
pKa (basic) [1, 3]: 9.01
(ΔTm)c-(ΔTm)d, difference in melting temperature of LPLA2 alone or in the presence of drug (LPLA2; N=3 ± SD): 0.68 ± 0.5 °C
IC50 [2, 4]: 59 µM

NCC1(CC(=O)O)CCCCC1 [Gabapentin]
pKa (basic) [1, 5]: 9.91
IC50 [2, 6]: 37.4 µM

CC#C[C@]1(O)CC[C@H]2[C@@H]3CCC4=CC(=O)CCC4=C3[C@@H](c3ccc(N(C)C)cc3)C[C@@]21C [Mifepristone, (1S,3aS,3bS,10R,11aS)-10-[4-(dimethylamino)phenyl]-1-hydroxy-11a-methyl-1-(prop-1-yn-1-yl)-1H,2H,3H,3aH, 3bH,4H,5H,7H,8H, 9H,10H,11H,11aH-cyclopenta[a]phenanthren-7-one]
pKa (basic) [1, 3]: 4.89
(ΔTm)c-(ΔTm)d, difference in melting temperature of LPLA2 alone or in the presence of drug (LPLA2): 0.20 ± 0.0 °C
IC50 [2, 4]: 27.7 µM

O=c1ccn([C@@H]2O[C@H](CO)[C@@H](O)[C@H]2O)c(=O)[nH]1 [Uridine]
pKa (basic) [1, 5]: -3

CCN(CCCCOC(=O)c1ccc(OC)c(OC)c1)C(C)Cc1ccc(OC)cc1 (centres unmarked) [Mebeverine, 4-{ethyl[1-(4-methoxyphenyl)propan-2-yl]amino}butyl 3,4-dimethoxybenzoate]
pKa (basic) [1, 3]: 10.31
(ΔTm)c-(ΔTm)d, difference in melting temperature of LPLA2 alone or in the presence of drug (LPLA2; N=3 ± SD): -0.05 ± 0.5 °C
IC50 [2, 4]: 417 µM

CN1CCN2c3ncccc3Cc3ccccc3C2C1 (centres unmarked) [Mirtazapine, 5-methyl-2,5,19-triazatetracyclo [13.4.0.0^2,^7.0^8,^1³] nonadeca-1(15),8,10,12,16,18-hexaene]
pKa (basic) [1, 3]: 6.67
(ΔTm)c-(ΔTm)d, difference in melting temperature of LPLA2 alone or in the presence of drug (LPLA2; N=3 ± SD): -1.30 ± 0.7 °C
IC50 [2, 4]: 8.7 µM

CC[C@]1(O)C[C@@H]2CN(CCc3c([nH]c4ccccc34)[C@@](C(=O)OC)(c3cc4c(cc3OC)N(C)[C@H]3[C@@](O)(C(=O)OC)[C@H](OC(C)=O)[C@]5(CC)C=CCN6CC[C@]43[C@@H]65)C2)C1 [Vinblastine, methyl (1R,9R,10S,11R,12R,19R)-11-(acetyloxy)-12-ethyl-4-[(13S,15R,17S)-17-ethyl-17-hydroxy-13-(methoxycarbonyl)-1,11-diazatetracyclo [13.3.1.0ˆ[1].0ˆ[1]]nonadeca-4(12),5(10),6,8-tetraen-13-yl]-10-hydroxy-5-methoxy-8-methyl-8,16-diazapentacyclo [10.6.1.0ˆ[1].0ˆ[1] .0ˆ[3]] nonadeca-2,4,6,13-tetraene-10-carboxylate]
(ΔTm)c-(ΔTm)d, difference in melting temperature of LPLA2 alone or in the presence of drug (LPLA2; N=3 ± SD): -0.24 ± 0.0 °C
IC50 [2, 4]: 2120 µM
LPLA2 inhibition (in words) ([2]; acyl transferase activity): millimolar concentrations

CCN(CC)C(C)CN1c2ccccc2Sc2ccccc21 (centres unmarked) [Profenamine, diethyl[1-(10H-phenothiazin-10-yl)propan-2-yl]amine]
pKa (basic) [1, 3]: 9.6
IC50 [2, 4]: 8.7 µM

CCOc1ccc(NC(C)=O)cc1 [Phenacetin, N-(4-ethoxyphenyl) acetamide]
pKa (basic) [1, 3]: -4.2
(ΔTm)c-(ΔTm)d, difference in melting temperature of LPLA2 alone or in the presence of drug (LPLA2; N=3 ± SD): -2.30 ± 0.6 °C
IC50 [2, 4]: 2140 µM

CC(C)(C#N)c1cc(Cn2cncn2)cc(C(C)(C)C#N)c1 [Anastrozole, 2;2″-[5-(1H-1;2;4-Triazol-1-ylmethyl)-1,3-phenylene]bis(2-methyl-propiononitrile)]
pKa (basic) [1, 3]: 2
(ΔTm)c-(ΔTm)d, difference in melting temperature of LPLA2 alone or in the presence of drug (LPLA2; N=3 ± SD): -1.05 ± 0.1 °C
IC50 [2, 4]: 4.82 µM

CSC(=N)N [S-methylisothiourea]
(ΔTm)c-(ΔTm)d, difference in melting temperature of LPLA2 alone or in the presence of drug (LPLA2; N=3 ± SD): -2.05 ± 0.6 °C

O=C(O)Cc1ccccc1Nc1c(Cl)cccc1Cl [Diclofenac]
(ΔTm)c-(ΔTm)d, difference in melting temperature of LPLA2 alone or in the presence of drug (LPLA2; N=3 ± SD): 1.70 ± 0.5 °C
IC50 [2, 6]: 7.2 µM

OCCN1CCN(CCCN2c3ccccc3Sc3ccc(Cl)cc32)CC1 [Perphenazine]
pKa (basic) [1, 3]: 8.21
(ΔTm)c-(ΔTm)d, difference in melting temperature of LPLA2 alone or in the presence of drug (LPLA2): -0.41 ± 0.2 °C
IC50 ([2]; LPLA2 IC50, 1-O-acyl N-acetylsphingosine synthase activity, pH 4.5, DOPC/sulfatide liposomes): 3.92 µM

CCCNCC(O)COc1ccccc1C(=O)CCc1ccccc1 (centres unmarked) [Propafenone, 1-{2-[2-hydroxy-3-(propylamino)propoxy]phenyl}-3-phenylpropan-1-one]
IC50 [2, 4]: 48.2 µM

O=c1ccn([C@@H]2O[C@H](CO)[C@@H](O)[C@H]2O)c(=O)[nH]1 [uridine]
(ΔTm)c-(ΔTm)d, difference in melting temperature of LPLA2 alone or in the presence of drug (LPLA2; N=3 ± SD): -1.71 ± 0.1 °C

Fc1ccc(C(c2ccc(F)cc2)N2CCN(C/C=C/c3ccccc3)CC2)cc1 [Flunarizine, 1-[bis(4-fluorophenyl)methyl]-4-[(2E)-3-phenylprop-2-en-1-yl]piperazine]
pKa (basic) [1, 3]: 7.6

OC[C@H]1OC(O)[C@H](O)[C@@H](O)[C@@H]1O (mixture of isomers) [D-( ± )-glucose]
(ΔTm)c-(ΔTm)d, difference in melting temperature of LPLA2 alone or in the presence of drug (LPLA2; N=3 ± SD): 0 °C

C[C@]12CCC(=O)C=C1CC[C@@H]1[C@@H]2[C@@H](O)C[C@@]2(C)[C@H]1CC[C@]2(O)C(=O)CO [Hydrocortisone]
pKa (basic) [1, 5]: -2.8
(ΔTm)c-(ΔTm)d, difference in melting temperature of LPLA2 alone or in the presence of drug (LPLA2; N=3 ± SD): 1.11 ± 0.1 °C
IC50 [2, 6]: 402 µM

CC(C)C[C@H](N)C(=O)O [l-leucine]
(ΔTm)c-(ΔTm)d, difference in melting temperature of LPLA2 alone or in the presence of drug (LPLA2; N=3 ± SD): 1.86 ± 0.6 °C

CC(C)N(CCC(C(N)=O)(c1ccccc1)c1ccccn1)C(C)C (centres unmarked) [Disopyramide]
(ΔTm)c-(ΔTm)d, difference in melting temperature of LPLA2 alone or in the presence of drug (LPLA2): 0 °C

CN1CCN(CCCN2c3ccccc3Sc3ccc(Cl)cc32)CC1 [Prochlorperazine]
pKa (basic) [1, 5]: 8.39

Cl.NCCc1ccc(O)c(O)c1 [3-Hydroxy-tyramine hydrochloride]
pKa (basic) [1, 5]: 9.27
IC50 [2, 6]: 56.1 µM

CCN(CC)CCc1nc(-c2ccccc2)no1 [oxolamine]
(ΔTm)c-(ΔTm)d, difference in melting temperature of LPLA2 alone or in the presence of drug (LPLA2; N=3 ± SD): -0.89 ± 0.0 °C

NCCc1cc(O)c(O)cc1O [6-Hydroxy-dopamine]
pKa (basic) [1, 5]: 9.85
IC50 [2, 6]: 88 µM

CC(C)COCC(CN(Cc1ccccc1)c1ccccc1)N1CCCC1 (centres unmarked) [bepridil]
(ΔTm)c-(ΔTm)d, difference in melting temperature of LPLA2 alone or in the presence of drug (LPLA2; N=3 ± SD): 2.10 ± 0.6 °C

O=C1C(O)=C([C@H]2CC[C@H](c3ccc(Cl)cc3)CC2)C(=O)c2ccccc21 [atovaquone]
(ΔTm)c-(ΔTm)d, difference in melting temperature of LPLA2 alone or in the presence of drug (LPLA2; N=3 ± SD): -0.17 ± 0.1 °C

CN1[C@@H]2CC[C@H]1C[C@@H](OC(c1ccccc1)c1ccccc1)C2 [Benztropine]
pKa (basic) [1, 5]: 9.54

CN(C)C(=O)C(CCN1CCC(O)(c2ccc(Cl)cc2)CC1)(c1ccccc1)c1ccccc1 [Loperamide, 4-[4-(4-chlorophenyl)-4-hydroxypiperidin-1-yl]-N,N-dimethyl-2,2-diphenylbutanamide]
pKa (basic) [1, 3]: 9.41

OC(CCN1CCCC1)(c1ccccc1)C1CCCCC1 (centres unmarked) [Procyclidine]
pKa (basic) [1, 5]: 13.84
(ΔTm)c-(ΔTm)d, difference in melting temperature of LPLA2 alone or in the presence of drug (LPLA2; N=3 ± SD): 0.51 ± 0.0 °C

COc1ccc2c(c1)[nH]c1c(C)nccc12 [Harmine]
(ΔTm)c-(ΔTm)d, difference in melting temperature of LPLA2 alone or in the presence of drug (LPLA2; N=3 ± SD): -1.94 ± 0.9 °C
IC50 ([2]; LPLA2 IC50, LPLA2 dependent 1-O-acyl N-acetylsphingosine synthase activity): 633 µM

CN1[C@@H]2CC[C@H]1C[C@@H](OC(=O)C(CO)c1ccccc1)C2 (some centres unmarked) [Atropine]
IC50 ([2]; LPLA2 IC50): 1870 µM

C(=Cc1ccccc1)CN1CCN(C(c2ccccc2)c2ccccc2)CC1 [Cinnarizine, 1-(diphenylmethyl)-4-(3-phenylprop-2-en-1-yl) piperazine]
pKa (basic) [1, 3]: 8.44

CC(Cc1cccc(C(F)(F)F)c1)NCCOC(=O)c1ccccc1 (centres unmarked) [Benfluorex, N-(1-methyl-2-(3-[trifluoromethyl]-phenyl)ethyl)amino ethanol benzoate ester]
pKa (basic) [1, 3]: 9.14
IC50 [2, 4]: 19.9 µM

CCN(CC)CCOc1ccc(C(=C(Cl)c2ccccc2)c2ccccc2)cc1 [Clomifene]
pKa (basic) [1, 5]: 9.31

Cc1ccccc1C(OCCN(C)C)c1ccccc1 (centres unmarked) [Orphenadrine]
pKa (basic) [1, 5]: 8.87
